# Read-outs that look alike come from different tables or passages of the source.
# Legend:
# [1] = molecular target: EGFR del19/T790M/C797S (Homo sapiens, UniProt P00533, C797S/DEL746-750/T790M); assay: Biochemical EGFR kinase assay (Lance Ultra TR-FRET), triple mutant del19/T790M/C797S
# Procedure: (§1) Biochemical EGFR kinase assays were conducted using Lance Ultra time-resolved fluorescence resonance energy transfer (TR-FRET) technology from Perkin-Elmer. Compounds of the invention were initially diluted to 20 mM in 100% DMSO for storage and made into kinase buffer solution to create a compound concentration ranging from 0.003 μM and 10 μM.
# (§2) Each kinase reactions were incubated at room temperature for 1 hour and then stopped by the addition of 4 μL of stop solution (10 mM EDTA). The specific Europium-labeled-anti-phosphopeptide antibody (PerkinElmer, AD0069) diluted in LANCE detection buffer was then added to a final concentration of 2 nM. After 60 minutes incubation at room temperature the LANCE signal was measured on an EnVision Multilabel Reader (Perkin-Elmer). Excitation wavelength was set at 320 nm and emission monitored at 615 nm (donor) and 665 nm (acceptor). The IC50 values were determined using GraphPad prism software (GraphPad Software, Inc., San Diego, CA, USA).
# [2] = molecular target: EGFR L858R/T790M/C797S (Homo sapiens, UniProt P00533, C797S/L858R/T790M); assay: Biochemical EGFR kinase assay (Lance Ultra TR-FRET), triple mutant L858R/T790M/C797S
# Procedure: as §1, §2
# [3] = molecular target: EGFR L858R/C797S (Homo sapiens, UniProt P00533, C797S/L858R); assay: Biochemical EGFR kinase assay (Lance Ultra TR-FRET), double mutant L858R/C797S
# Procedure: as §1, §2
# [4] = molecular target: EGFR wildtype (WT) (Homo sapiens, UniProt P00533); assay: Biochemical EGFR kinase assay (Lance Ultra TR-FRET), wildtype
# Procedure: as §1, §2
# [5] = molecular target: EGFR del19/C797S (Homo sapiens, UniProt P00533, C797S/DEL746-750); assay: Biochemical EGFR kinase assay (Lance Ultra TR-FRET), double mutant del19/C797S; conditions: Km ATP; read-out: IC50 del19/C797S (nM) Km ATP
# Procedure: as §1, §2
# [6] = Km ATP, read-out: IC50 del19/T790M/C797S (nM) Km ATP
# [7] = Km ATP, read-out: IC50 L858R/T790M/C797S (nM) Km ATP
# [8] = Km ATP, read-out: IC50 L858R/C797S (nM) Km ATP
# [9] = Km ATP, read-out: IC50 WT (nM) Km ATP
# [10] = IC50 del19/T790M/C797S (nM) 100 μM ATP, 100 μM ATP
# [11] = IC50 L858R/T790M/C797S (nM) 100 μM ATP, 100 μM ATP
# [12] = IC50 L858R/C797S (nM) 100 μM ATP, 100 μM ATP
# [13] = IC50 WT (nM) 100 μM ATP, 100 μM ATP
# Chain of EGFR L858R/T790M/C797S (P00533 25-1210 T790M/C797S/L858R): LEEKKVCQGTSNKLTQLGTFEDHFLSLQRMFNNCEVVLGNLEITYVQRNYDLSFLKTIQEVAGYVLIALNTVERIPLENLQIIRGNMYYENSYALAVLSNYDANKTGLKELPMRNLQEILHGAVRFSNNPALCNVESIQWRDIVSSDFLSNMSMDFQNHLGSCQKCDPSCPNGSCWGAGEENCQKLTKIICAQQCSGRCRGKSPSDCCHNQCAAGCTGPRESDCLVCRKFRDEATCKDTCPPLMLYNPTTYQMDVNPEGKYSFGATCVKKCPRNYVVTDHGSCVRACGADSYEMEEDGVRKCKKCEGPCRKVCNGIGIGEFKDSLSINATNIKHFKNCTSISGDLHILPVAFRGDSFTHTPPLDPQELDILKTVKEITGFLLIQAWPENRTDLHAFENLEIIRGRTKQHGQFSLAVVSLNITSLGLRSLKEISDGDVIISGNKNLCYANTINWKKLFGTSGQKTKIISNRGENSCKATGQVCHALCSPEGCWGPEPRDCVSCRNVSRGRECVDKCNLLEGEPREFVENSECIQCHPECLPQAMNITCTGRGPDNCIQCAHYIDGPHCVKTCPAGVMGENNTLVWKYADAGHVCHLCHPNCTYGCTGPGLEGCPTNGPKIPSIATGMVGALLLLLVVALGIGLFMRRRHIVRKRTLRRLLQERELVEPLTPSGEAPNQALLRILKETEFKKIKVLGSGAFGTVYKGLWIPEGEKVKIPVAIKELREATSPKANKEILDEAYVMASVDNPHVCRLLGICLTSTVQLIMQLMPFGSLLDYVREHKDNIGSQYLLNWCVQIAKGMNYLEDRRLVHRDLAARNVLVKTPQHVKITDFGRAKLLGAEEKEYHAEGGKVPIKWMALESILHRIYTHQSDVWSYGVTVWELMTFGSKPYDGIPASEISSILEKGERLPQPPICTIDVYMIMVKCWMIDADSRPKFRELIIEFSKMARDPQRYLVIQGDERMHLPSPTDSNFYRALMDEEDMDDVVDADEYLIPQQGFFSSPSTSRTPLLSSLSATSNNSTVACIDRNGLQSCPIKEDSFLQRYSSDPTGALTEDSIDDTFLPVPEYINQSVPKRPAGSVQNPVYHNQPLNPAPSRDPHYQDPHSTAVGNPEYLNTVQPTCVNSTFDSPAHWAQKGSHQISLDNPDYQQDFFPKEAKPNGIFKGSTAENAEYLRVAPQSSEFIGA
# Chain of EGFR del19/T790M/C797S (P00533 with tags, fused parts or gaps DEL746-750/T790M/C797S): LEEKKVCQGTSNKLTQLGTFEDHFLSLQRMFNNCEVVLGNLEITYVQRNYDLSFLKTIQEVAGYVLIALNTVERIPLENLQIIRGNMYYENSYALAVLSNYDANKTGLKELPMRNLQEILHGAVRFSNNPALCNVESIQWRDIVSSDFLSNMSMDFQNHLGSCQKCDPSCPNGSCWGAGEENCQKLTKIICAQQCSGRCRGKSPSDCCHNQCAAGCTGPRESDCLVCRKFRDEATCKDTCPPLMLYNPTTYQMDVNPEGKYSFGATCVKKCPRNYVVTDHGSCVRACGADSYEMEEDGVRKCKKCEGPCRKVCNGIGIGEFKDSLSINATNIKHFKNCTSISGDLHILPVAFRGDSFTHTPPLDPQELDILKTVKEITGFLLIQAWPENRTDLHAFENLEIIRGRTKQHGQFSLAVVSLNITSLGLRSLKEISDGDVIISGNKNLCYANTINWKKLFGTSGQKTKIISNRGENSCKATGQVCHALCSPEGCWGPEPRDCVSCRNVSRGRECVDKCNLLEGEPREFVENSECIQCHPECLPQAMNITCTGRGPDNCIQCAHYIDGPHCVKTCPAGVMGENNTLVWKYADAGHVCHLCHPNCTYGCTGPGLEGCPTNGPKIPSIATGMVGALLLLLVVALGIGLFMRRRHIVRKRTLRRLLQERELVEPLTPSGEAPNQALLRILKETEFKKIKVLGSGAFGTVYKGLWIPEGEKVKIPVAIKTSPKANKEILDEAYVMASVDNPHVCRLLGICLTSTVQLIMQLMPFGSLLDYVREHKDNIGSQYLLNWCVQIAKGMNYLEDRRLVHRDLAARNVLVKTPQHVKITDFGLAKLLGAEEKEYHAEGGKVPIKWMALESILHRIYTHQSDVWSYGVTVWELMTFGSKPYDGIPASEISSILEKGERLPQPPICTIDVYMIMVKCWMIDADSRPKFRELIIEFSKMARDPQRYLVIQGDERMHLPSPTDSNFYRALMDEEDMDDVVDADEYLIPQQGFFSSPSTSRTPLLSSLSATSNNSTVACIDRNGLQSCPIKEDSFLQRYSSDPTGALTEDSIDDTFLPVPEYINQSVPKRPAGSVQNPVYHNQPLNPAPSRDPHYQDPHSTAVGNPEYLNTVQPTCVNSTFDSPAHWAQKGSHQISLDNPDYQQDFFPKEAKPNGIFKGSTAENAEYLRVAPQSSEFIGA
# Chain of EGFR wildtype (WT) (P00533 25-1210): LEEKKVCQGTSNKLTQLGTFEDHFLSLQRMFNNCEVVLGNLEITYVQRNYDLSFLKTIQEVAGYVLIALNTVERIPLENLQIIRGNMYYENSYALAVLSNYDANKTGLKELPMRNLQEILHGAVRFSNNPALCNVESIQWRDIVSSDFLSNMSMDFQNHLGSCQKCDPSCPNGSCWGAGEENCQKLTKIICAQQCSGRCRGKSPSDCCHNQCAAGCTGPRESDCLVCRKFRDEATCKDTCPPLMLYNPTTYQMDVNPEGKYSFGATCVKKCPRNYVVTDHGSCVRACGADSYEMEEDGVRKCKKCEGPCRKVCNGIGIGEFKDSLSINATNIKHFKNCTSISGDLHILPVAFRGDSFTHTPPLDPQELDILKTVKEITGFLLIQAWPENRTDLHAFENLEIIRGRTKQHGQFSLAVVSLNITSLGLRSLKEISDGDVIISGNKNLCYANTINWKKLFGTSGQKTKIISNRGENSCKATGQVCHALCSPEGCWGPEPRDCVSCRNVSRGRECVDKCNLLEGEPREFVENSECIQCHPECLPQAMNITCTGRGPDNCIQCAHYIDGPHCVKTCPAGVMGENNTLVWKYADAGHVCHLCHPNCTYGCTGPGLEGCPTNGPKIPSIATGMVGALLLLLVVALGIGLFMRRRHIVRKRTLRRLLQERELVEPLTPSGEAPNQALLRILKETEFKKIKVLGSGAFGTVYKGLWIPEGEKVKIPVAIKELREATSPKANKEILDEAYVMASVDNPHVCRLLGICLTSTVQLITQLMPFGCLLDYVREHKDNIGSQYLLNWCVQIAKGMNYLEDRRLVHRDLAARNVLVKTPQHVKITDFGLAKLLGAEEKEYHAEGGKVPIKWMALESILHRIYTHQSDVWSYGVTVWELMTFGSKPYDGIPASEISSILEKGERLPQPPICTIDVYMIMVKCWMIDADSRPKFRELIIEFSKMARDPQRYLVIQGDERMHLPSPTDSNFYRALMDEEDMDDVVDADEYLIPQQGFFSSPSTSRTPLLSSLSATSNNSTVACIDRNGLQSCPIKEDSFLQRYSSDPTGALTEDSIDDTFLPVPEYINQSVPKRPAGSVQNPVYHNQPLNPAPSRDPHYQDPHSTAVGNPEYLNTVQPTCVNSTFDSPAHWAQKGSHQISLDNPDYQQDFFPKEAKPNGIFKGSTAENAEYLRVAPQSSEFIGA
# Chain of EGFR L858R/C797S (P00533 25-1210 C797S/L858R): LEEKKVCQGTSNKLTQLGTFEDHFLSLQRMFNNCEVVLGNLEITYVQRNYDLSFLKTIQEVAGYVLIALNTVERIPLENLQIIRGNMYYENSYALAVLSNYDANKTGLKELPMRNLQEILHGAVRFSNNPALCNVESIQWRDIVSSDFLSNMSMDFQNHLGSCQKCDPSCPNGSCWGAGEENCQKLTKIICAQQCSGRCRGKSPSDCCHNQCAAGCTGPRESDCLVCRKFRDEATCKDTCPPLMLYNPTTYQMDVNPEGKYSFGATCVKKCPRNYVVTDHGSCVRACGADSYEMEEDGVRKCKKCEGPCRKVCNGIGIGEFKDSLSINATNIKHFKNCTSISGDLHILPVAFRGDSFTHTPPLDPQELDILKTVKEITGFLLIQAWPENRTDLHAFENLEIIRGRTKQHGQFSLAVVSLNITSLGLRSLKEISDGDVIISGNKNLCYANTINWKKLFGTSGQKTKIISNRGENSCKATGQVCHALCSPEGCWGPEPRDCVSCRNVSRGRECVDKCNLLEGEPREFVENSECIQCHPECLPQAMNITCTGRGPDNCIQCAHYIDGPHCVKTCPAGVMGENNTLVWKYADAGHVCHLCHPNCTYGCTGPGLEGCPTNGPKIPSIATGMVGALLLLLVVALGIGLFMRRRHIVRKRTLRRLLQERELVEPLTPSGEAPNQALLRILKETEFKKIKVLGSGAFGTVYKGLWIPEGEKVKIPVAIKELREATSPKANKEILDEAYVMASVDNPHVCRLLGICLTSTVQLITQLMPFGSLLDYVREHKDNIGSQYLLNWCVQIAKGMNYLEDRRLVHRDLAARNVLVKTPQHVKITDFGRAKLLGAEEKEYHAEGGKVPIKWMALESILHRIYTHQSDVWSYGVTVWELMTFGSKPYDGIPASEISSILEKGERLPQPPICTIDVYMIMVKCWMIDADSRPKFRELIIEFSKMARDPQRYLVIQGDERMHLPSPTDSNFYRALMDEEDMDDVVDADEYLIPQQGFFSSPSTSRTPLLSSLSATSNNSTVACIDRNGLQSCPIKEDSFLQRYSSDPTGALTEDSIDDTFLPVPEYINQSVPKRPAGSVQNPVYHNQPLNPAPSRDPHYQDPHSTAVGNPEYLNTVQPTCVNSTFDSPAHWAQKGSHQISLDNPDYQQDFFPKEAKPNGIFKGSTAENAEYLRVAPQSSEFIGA
SMILES,"IC50 [1, 6]","IC50 [2, 7]","IC50 [3, 8]","IC50 [4, 9]","IC50 [1, 10]","IC50 [2, 11]","IC50 [3, 12]","IC50 [4, 13]",IC50 [5]
"CC1(O)CCC(Nc2cc(Nc3ccnc(-c4cnn(S(=O)(=O)C5CCOC5)c4)n3)ncc2-c2ccn(C(F)F)n2)CC1 (stereo not shown) [Example 114, (1s,4s)-4-((5-(1-(Difluoromethyl)-1H-pyrazol-3-yl)-2-((2-(1-((tetrahydrofuran-3-yl)sulfonyl)-1H-pyrazol-4-yl)pyrimidin-4-yl)amino)pyridin-4-yl)amino)-1-methylcyclohexan-1-ol]",0.6 nM,0.2 nM,1 nM,4.2 nM,,,,,
"CN(C)CC1(C)CCC(Nc2cc(Nc3ccnc(-c4cnn(S(=O)(=O)C5CC5)c4)n3)ncc2-c2ccn(C(F)F)n2)CC1 (stereo not shown) [Example 207, N^2-(2-(1-(Cyclopropylsulfonyl)-1H-pyrazol-4-yl)pyrimidin-4-yl)-5-(1-(difluoromethyl)-1H-pyrazol-3-yl)-N^4-(4-((dimethylamino)methyl)-4-methylcyclohexyl)pyridine-2,4-diamine]",0.8 nM,0.3 nM,10.5 nM,15.3 nM,0.7 nM,1 nM,200 nM,5120 nM,
"C[C@]1(O)CC[C@@H](Nc2cc(Nc3ccnc(-c4cnn(S(=O)(=O)C5CC5)c4)n3)ncc2-c2nc(C(F)F)cs2)CC1 [Example 122, (1s,4s)-4-((2-((2-(1-(Cyclopropylsulfonyl)-1H-pyrazol-4-yl)pyrimidin-4-yl)amino)-5-(4-(difluoromethyl)thiazol-2-yl)pyridin-4-yl)amino)-1-methylcyclohexan-1-ol]",,0.3 nM,,9 nM,0.6 nM,0.4 nM,8.5 nM,1420 nM,
"C[C@]1(O)CC[C@@H](Nc2cc(Nc3ccnc(-c4cnn(S(=O)(=O)C5CCCC5)c4)n3)ncc2-c2ccn(C(F)F)n2)CC1 [Example 115, (1s,4s)-4-((2-((2-(1-(Cyclopentylsulfonyl)-1H-pyrazol-4-yl)pyrimidin-4-yl)amino)-5-(1-(difluoromethyl)-1H-pyrazol-3-yl)pyridin-4-yl)amino)-1-methylcyclohexan-1-ol]",1.9 nM,1.3 nM,,20.2 nM,,,,,
"CN1CCN(c2nc(-c3cnc(Nc4ccnc(-c5cnn(S(=O)(=O)C6CC6)c5)n4)cc3N[C@H]3CC[C@@](C)(O)CC3)cs2)CC1 [Example 121, (1s,4s)-4-((2-((2-(1-(Cyclopropylsulfonyl)-1H-pyrazol-4-yl)pyrimidin-4-yl)amino)-5-(2-(4-methylpiperazin-1-yl)thiazol-4-yl)pyridin-4-yl)amino)-1-methylcyclohexan-1-ol]",1.2 nM,0.4 nM,2.4 nM,12.8 nM,1.7 nM,1.4 nM,19.8 nM,8920 nM,
"C[C@]1(O)CC[C@@H](Nc2cc(Nc3ccnc(-c4cnn(S(=O)(=O)C5CC5)c4)n3)ncc2-n2ccc(C(F)F)n2)CC1 [Example 172, (1s,4s)-4-((2-((2-(1-(Cyclopropylsulfonyl)-1H-pyrazol-4-yl)pyrimidin-4-yl)amino)-5-(3-(difluoromethyl)-1H-pyrazol-1-yl)pyridin-4-yl)amino)-1-methylcyclohexan-1-ol]",0.3 nM,0.1 nM,9.3 nM,3.4 nM,,,,,
"CC(C)(O)[C@H]1CC[C@@H](Nc2cc(Nc3ccnc(-c4cnn(S(=O)(=O)C5CC5)c4)n3)ncc2-c2ccn(C3COC3)n2)CC1 [Example 283, 2-((1s,4s)-4-((2-((2-(1-(Cyclopropylsulfonyl)-1H-pyrazol-4-yl)pyrimidin-4-yl)amino)-5-(1-(oxetan-3-yl)-1H-pyrazol-3-yl)pyridin-4-yl)amino)cyclohexyl)propan-2-ol]",0.6 nM,0.3 nM,0.6 nM,4.8 nM,0.6 nM,0.5 nM,2.9 nM,2000 nM,
"CN(C)C(=O)C[C@H]1CC[C@@H](Nc2cc(Nc3ccnc(-c4cnn(S(=O)(=O)C5CC5)c4)n3)ncc2-c2cc(C(F)(F)F)n(C)n2)CC1 [Example 258, 2-((1s,4s)-4-((2-((2-(1-(Cyclopropylsulfonyl)-1H-pyrazol-4-yl)pyrimidin-4-yl)amino)-5-(1-methyl-5-(trifluoromethyl)-1H-pyrazol-3-yl)pyridin-4-yl)amino)cyclohexyl)-N,N-dimethylacetamide]",2.5 nM,1.4 nM,,9 nM,5.1 nM,2.8 nM,26.7 nM,2070 nM,
"Cn1cc(C#Cc2cc(Nc3ccnc(-c4cnn(S(=O)(=O)C5CC5)c4)n3)ncc2-c2cnn(C(F)F)c2)cn1 [Example 2, 2-(1-(Cyclopropylsulfonyl)-1H-pyrazol-4-yl)-N-(5-(1-(difluoromethyl)-1H-pyrazol-4-yl)-4-((1-methyl-1H-pyrazol-4-yl)ethynyl)pyridin-2-yl)pyrimidin-4-amine]",31.3 nM,,,,,,,,371 nM
"CC1(O)CCC(Oc2cc(Nc3ccnc(-c4cnn(S(=O)(=O)C5CC5)c4)n3)ncc2-c2cnn(C(F)F)c2)CC1 (stereo not shown) [Example 73, 4-((2-((2-(1-(Cyclopropylsulfonyl)-1H-pyrazol-4-yl)pyrimidin-4-yl)amino)-5-(1-(difluoromethyl)-1H-pyrazol-4-yl)pyridin-4-yl)oxy)-1-methylcyclohexan-1-ol]",0.5 nM,0.2 nM,2.9 nM,65.3 nM,0.4 nM,1.1 nM,41.3 nM,> 10000 nM,
"Cn1cc(-c2cnc(Nc3ccnc(-c4cnn(S(=O)(=O)C5CC5)c4)n3)cc2C#CC(C)(C)O)cn1 [Example 4, 4-(2-((2-(1-(Cyclopropylsulfonyl)-1H-pyrazol-4-yl)pyrimidin-4-yl)amino)-5-(1-methyl-1H-pyrazol-4-yl)pyridin-4-yl)-2-methylbut-3-yn-2-ol]",3.2 nM,0.8 nM,75.9 nM,214 nM,,,,,
"CC(C)n1ccc(-c2cnc(Nc3ccnc(-c4cnn(S(=O)(=O)C5CC5)c4)n3)cc2N[C@H]2CC[C@@](C)(O)CC2)n1 [Example 84, (1s,4s)-4-((2-((2-(1-(Cyclopropylsulfonyl)-1H-pyrazol-4-yl)pyrimidin-4-yl)amino)-5-(1-isopropyl-1H-pyrazol-3-yl)pyridin-4-yl)amino)-1-methylcyclohexan-1-ol]",,,,,0.6 nM,1 nM,6.7 nM,> 10000 nM,
"Cn1ccc(-c2cnc(Nc3ccnc(-c4cnn(S(=O)(=O)C5CC5)c4)n3)cc2N[C@H]2CC[C@@H](C(C)(C)O)CC2)n1 [Example 42, 2-((1s,4s)-4-((2-((2-(1-(Cyclopropylsulfonyl)-1H-pyrazol-4-yl)pyrimidin-4-yl)amino)-5-(1-methyl-1H-pyrazol-3-yl)pyridin-4-yl)amino)cyclohexyl)propan-2-ol]",0.9 nM,0.6 nM,1 nM,,1.4 nM,1.9 nM,11.3 nM,7830 nM,
"C[C@]1(O)CC[C@@H](Nc2cc(Nc3ccnc(-c4cnn(S(=O)(=O)C5CC5)c4)n3)ncc2-c2ccn(CCC(F)(F)F)n2)CC1 [Example 295, (1s,4s)-4-((2-((2-(1-(Cyclopropylsulfonyl)-1H-pyrazol-4-yl)pyrimidin-4-yl)amino)-5-(1-(3,3,3-trifluoropropyl)-1H-pyrazol-3-yl)pyridin-4-yl)amino)-1-methylcyclohexan-1-ol]",0.7 nM,0.6 nM,0.3 nM,3.8 nM,,,,,
"Cn1nc(-c2cnc(Nc3ccnc(-c4cnn(S(=O)(=O)C5CC5)c4)n3)cc2N[C@H]2CC[C@@](C)(O)CC2)cc1N1CCC(F)(F)CC1 [Example 307, (1s,4s)-4-((2-((2-(1-(Cyclopropylsulfonyl)-1H-pyrazol-4-yl)pyrimidin-4-yl)amino)-5-(5-(4,4-difluoropiperidin-1-yl)-1-methyl-1H-pyrazol-3-yl)pyridin-4-yl)amino)-1-methylcyclohexan-1-ol]",,,,20.9 nM,,,,,7.5 nM
"C[C@]1(O)CC[C@@H](Nc2cc(Nc3ccnc(-c4cnn(S(=O)(=O)C5CC5)c4)n3)ncc2-c2csc(C(F)(F)F)n2)CC1 [Example 51, (1s,4s)-4-((2-((2-(1-(Cyclopropylsulfonyl)-1H-pyrazol-4-yl)pyrimidin-4-yl)amino)-5-(2-(trifluoromethyl)thiazol-4-yl)pyridin-4-yl)amino)-1-methylcyclohexan-1-ol]",,,,,2.4 nM,,7 nM,> 10000 nM,

# Source: US12258327B2, “5-membered heteroaryl-containing aminopyridine compounds as EGFR inhibitors” (YUHAN CORPORATION, priority 2021, dated 2025)
